Source: the supplement of paper PMC12592484

How the values were obtained:
Test in all cases: drug sensitivity score (DSS2, normalised partial AUC of dose-response, 72 h CellTiter-Glo viability) (DSS (dimensionless)); higher = more sensitive (stronger growth inhibition / cytotoxicity); extreme values may be limits of the assay
CAF#2 = system: CAF#2 (primary prostate cancer-associated fibroblasts of iCAF-like type)
Procedure, shortened: (§1)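 Low-passage primary prostate cancer-associated fibroblasts, PF179T, WPMY-1, LNCaP and 22Rv1 cells were seeded into 384-well plates carrying pre-dispensed compounds at five doses covering a 10,000-fold range. After 72 h, viability was read by CellTiter-Glo 2.0 luminescence. Responses were scaled to vehicle and positive-control wells. The drug sensitivity score (DSS2) is a partial area under the fitted logistic dose–response curve divided by the log of its upper asymptote, computed in BREEZE; higher means more sensitive.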

CAF#6 = system: CAF#6 (primary prostate cancer-associated fibroblasts of iCAF-like type)
Procedure, shortened: as §1

WPMY-1 = system: WPMY-1
Procedure, shortened: as §1

22Rv1 = system: 22Rv1
Procedure, shortened: as §1

CAF#3 = system: CAF#3 (primary prostate cancer-associated fibroblasts of myCAF-like type)
Procedure, shortened: as §1

CAF#7 = system: CAF#7 (primary prostate cancer-associated fibroblasts of myCAF-like type)
Procedure, shortened: as §1

CAF#4 = system: CAF#4 (primary prostate cancer-associated fibroblasts of iCAF-like type)
Procedure, shortened: as §1

PF179T = system: PF179T
Procedure, shortened: as §1

LNCAP = system: LNCAP
Procedure, shortened: as §1

CAF#5 = system: CAF#5 (primary prostate cancer-associated fibroblasts of myCAF-like type)
Procedure, shortened: as §1

CAF#1 = system: CAF#1 (primary prostate cancer-associated fibroblasts of myCAF-like type)
Procedure, shortened: as §1

Row | Structure (SMILES) | drug sensitivity score (CAF#2) | drug sensitivity score (CAF#6) | drug sensitivity score (WPMY-1) | drug sensitivity score (22Rv1) | drug sensitivity score (CAF#3) | drug sensitivity score (CAF#7) | drug sensitivity score (CAF#4) | drug sensitivity score (PF179T) | drug sensitivity score (LNCAP) | drug sensitivity score (CAF#5) | drug sensitivity score (CAF#1)
1 | Nc1ccn([C@@H]2O[C@H](CO)[C@@H](O)C2(F)F)c(=O)n1 [Gemcitabine] (tested concentration range 0.1-1000 nM) | 10 | 4.4 | 22.5 | 20.9 | 3.9 | 7.2 | 8 | 18 | 16.4 | 5.6 | 3.1
2 | CN1CCN(c2ccc3nc(-c4c(N)c5c(F)cccc5[nH]c4=O)[nH]c3c2)CC1 [Dovitinib] (tested concentration range 1-10000 nM) | 2.6 | 0 | 0 | 0.2 | 0.7 | 0 | 0 | 0 | 0.3 | 0.8 | 0.2
3 | Cc1ccc(NC(=O)c2ccc(CN3CCN(C)CC3)cc2)cc1Nc1nc(-c2cccnc2)cs1 [Masitinib] (tested concentration range 1-10000 nM) | 5.3 | 1.6 | 5.3 | 5.3 | 0.6 | 1.9 | 7.6 | 2.4 | 4.3 | 3.1 | 4.1
4 | N#CC1(c2ccc(NC(=O)c3cccnc3NCc3ccncc3)cc2)CCCC1 [Apatinib] (tested concentration range 1-10000 nM) | 0 | 2.6 | 0 | 0 | 1.8 | 2.2 | 0 | 0 | 5.8 | 0 | 0
5 | Nc1ncn([C@@H]2O[C@H](CO)[C@@H](O)[C@H]2O)c(=O)n1 [Azacitidine] (tested concentration range 1-10000 nM) | 3 | 2.2 | 2 | 2.8 | 1.8 | 3.2 | 2.3 | 2.6 | 2.4 | 0.5 | 2.3
6 | O=C(O)C1(C(=O)O)CCC1.[NH2-].[NH2-].[Pt+2] [Carboplatin] (tested concentration range 10-100000 nM) | 8.3 | 1.6 | 7.7 | 6.7 | 2.8 | 0.4 | 5.5 | 6 | 5.5 | 5.5 | 4.8
7 | CNC(=O)c1ccccc1Nc1cc(Nc2ccc(N3CCOCC3)cc2OC)ncc1C(F)(F)F [VS-4718] (tested concentration range 1-10000 nM) | 11.9 | 8.9 | 6.8 | 7.9 | 8.1 | 12.4 | 7.3 | 7.5 | 4.5 | 13.1 | 12.9
8 | CCS(=O)(=O)Nc1ccc(Oc2ccc(F)cc2F)c(-c2cn(C)c(=O)c3[nH]ccc23)c1 [Mivebresib] (tested concentration range 1-10000 nM) | 19.7 | 13.3 | 22.9 | 23.5 | 19.3 | 11.4 | 10.7 | 11.1 | 30.7 | 15.5 | 19
9 | COc1cc2nccc(Oc3ccc(NC(=O)Nc4cc(C)on4)c(Cl)c3)c2cc1OC [Tivozanib] (tested concentration range 1-10000 nM) | 7.7 | 4.2 | 4.6 | 1.6 | 6 | 6 | 4.6 | 3 | 4.8 | 6.9 | 6.2
10 | CCCC(CCC)C(=O)O [Valproic acid] (tested concentration range 100-1000000 nM) | 0 | 0 | 0 | 0 | 1.2 | 0 | 0 | 0 | 0 | 0 | 0
11 | O=C(Nc1cc(Cl)cc2c1[nH]c1cnccc12)c1cccnc1 [PS-1145] (tested concentration range 2.5-25000 nM) | 4.1 | 0.1 | 0.1 | 0 | 1.3 | 0 | 0 | 3.5 | 0 | 2.5 | 3.1
12 | C=CCn1c(=O)c2cnc(Nc3ccc(N4CCN(C)CC4)cc3)nc2n1-c1cccc(C(C)(C)O)n1 [Adavosertib] (tested concentration range 1-10000 nM) | 10.3 | 4 | 21.5 | 11.9 | 2.7 | 7.3 | 8.9 | 10.4 | 17 | 5.9 | 7.3
13 | O=C(Nc1cnn2ccc(N3CCC[C@@H]3c3cc(F)ccc3F)nc12)N1CC[C@H](O)C1 [Larotrectinib] (tested concentration range 0.1-1000 nM) | 0 | 0 | 0 | 0 | 0 | 0 | 0 | 0 | 0 | 0 | 0
14 | CC[C@@]1(O)C(=O)OCc2c1cc1n(c2=O)Cc2cc3c(CN(C)C)c(O)ccc3nc2-1 [Topotecan] (tested concentration range 1-10000 nM) | 10.3 | 4.8 | 14.6 | 24.5 | 4.8 | 5.3 | 8.1 | 8.7 | 22.7 | 6.9 | 8.9
15 | CC(C)(O)CNc1nc(Nc2ccnc(C(F)(F)F)c2)nc(-c2cccc(C(F)(F)F)n2)n1 [Enasidenib] (tested concentration range 1-10000 nM) | 0 | 0 | 0 | 1.7 | 0.4 | 0 | 0 | 0 | 1.2 | 0 | 0
16 | CCN(CC)C(=S)SSC(=S)N(CC)CC [Disulfiram] (tested concentration range 5-50000 nM) | 3.7 | 0 | 0 | 0 | 0 | 0.1 | 0.9 | 0 | 0.1 | 6.6 | 5
17 | Cc1sc2c(c1C)C(c1ccc(Cl)cc1)=N[C@@H](CC(=O)NCCCCNC(=O)COc1cccc3c1C(=O)N(C1CCC(=O)NC1=O)C3=O)c1nnc(C)n1-2 (some centres not stated) [dBET1] (tested concentration range 1-10000 nM) | 2.7 | 9.1 | 6 | 12 | 12 | 14.2 | 6.3 | 0.2 | 9.1 | 8.2 | 4.5
18 | CCN1CCN(c2ccc(Nc3cc(N(C)C(=O)Nc4c(Cl)c(OC)cc(OC)c4Cl)ncn3)cc2)CC1 [Infigratinib] (tested concentration range 0.1-1000 nM) | 0 | 0 | 0 | 0 | 0 | 0 | 0 | 0 | 0 | 0 | 0
19 | CCCN(CCC)C(=O)C1=Cc2ccc(-c3ccc(C(=O)N4CCCC4)cc3)cc2N=C(N)C1 [Motolimod] (tested concentration range 1-10000 nM) | 1 | 1.5 | 0.3 | 1.1 | 1.7 | 0 | 0 | 0 | 3.2 | 0 | 0.4
20 | Oc1nc(-c2ccc(C(F)(F)F)cc2)nc2c1CSCC2 [XAV-939] (tested concentration range 1-10000 nM) | 5.4 | 4 | 0 | 0 | 2.5 | 4.3 | 2.6 | 2.6 | 2.1 | 4.1 | 2.6
21 | CC1(COc2ccc3c(c2)ncn3-c2ccc3cccc(N4CCC(N)CC4)c3n2)COC1 [Crenolanib] (tested concentration range 1-10000 nM) | 7.3 | 7 | 7.2 | 4.9 | 7.5 | 3.5 | 3.2 | 4.7 | 4.4 | 9.3 | 8.9
22 | Nc1nc(Cl)nc2c1ncn2[C@@H]1O[C@H](CO)[C@@H](O)[C@@H]1F [Clofarabine] (tested concentration range 1-10000 nM) | 10.6 | 6.1 | 16.9 | 13.9 | 5 | 9.3 | 4.6 | 10.6 | 18.5 | 7.3 | 6.5
23 | CC[C@@H]1C(=O)OC[C@@H]1Cc1cncn1C [Pilocarpine] (tested concentration range 4-40000 nM) | 0 | 0 | 0 | 0 | 0 | 0 | 0 | 0 | 0 | 1.5 | 0.8
24 | Cc1ccc(=O)n(-c2ccccc2)c1 [Pirfenidone] (tested concentration range 1-10000 nM) | 0 | 0 | 0 | 0 | 0 | 0 | 0 | 0 | 0 | 0 | 0
25 | Cn1ncnc1[C@H]1c2n[nH]c(=O)c3cc(F)cc(c23)N[C@@H]1c1ccc(F)cc1 [Talazoparib] (tested concentration range 0.1-1000 nM) | 8 | 1.6 | 4 | 11.5 | 2.1 | 2.9 | 3.4 | 11.2 | 15.3 | 6.2 | 4.9
26 | Cn1cncc1[C@@](N)(c1ccc(Cl)cc1)c1ccc2c(c1)c(-c1cccc(Cl)c1)cc(=O)n2C [Tipifarnib] (tested concentration range 1-10000 nM) | 7.6 | 3.2 | 9.8 | 13.8 | 7.3 | 1.4 | 7 | 4.6 | 14.8 | 4.8 | 2.1
27 | O=c1[nH]c(C2CCCN2)nc2c1oc1ccc(Cl)cc12 (configuration not stated) (tested concentration range 1-10000 nM) | 0 | 0 | 3.3 | 0.6 | 1.6 | 0 | 0 | 0 | 2.7 | 0 | 0
